Results from ChEMBL document CHEMBL1806458, “The design, synthesis and structure-activity relationships of novel isoindoline-based histone deacetylase inhibitors” (Bioorg Med Chem Lett, 2011).
In brackets after ≈: the same amount, converted by molar mass.

How the values were obtained:
Histone deacetylase 1 = Histone deacetylase 1 (Homo sapiens, UniProt Q13547)
Description: Inhibition of purified recombinant HDAC1

HCT-116 = assay: cells; settings: Homo sapiens
Description: Antiproliferative activity against human HCT116 cells

[1] = target: T1, Voltage-gated inwardly rectifying potassium channel KCNH2 (Homo sapiens, UniProt Q12809); assay: Inhibition of human ERG by automated patch clamp assay
[2] = Thermodynamic solubility of the compound at pH 6.8; type: physicochemical; settings: buffer; for solubility thermodynamic: read-out: Therm_solubility
Cytochrome P450 3A4 = Cytochrome P450 3A4 (Homo sapiens, UniProt P08684)
[3] = Half life in rat liver microsomes; type: ADME, Microsome
hERG (KCNH2) = settings: human
[4] = target: T1, Voltage-gated inwardly rectifying potassium channel KCNH2; assay: Binding affinity to human ERG by radioligand binding assay
[5] = Half life in human liver microsomes; type: ADME, Microsome

Histone deacetylase 1, sequence (Q13547 whole entry): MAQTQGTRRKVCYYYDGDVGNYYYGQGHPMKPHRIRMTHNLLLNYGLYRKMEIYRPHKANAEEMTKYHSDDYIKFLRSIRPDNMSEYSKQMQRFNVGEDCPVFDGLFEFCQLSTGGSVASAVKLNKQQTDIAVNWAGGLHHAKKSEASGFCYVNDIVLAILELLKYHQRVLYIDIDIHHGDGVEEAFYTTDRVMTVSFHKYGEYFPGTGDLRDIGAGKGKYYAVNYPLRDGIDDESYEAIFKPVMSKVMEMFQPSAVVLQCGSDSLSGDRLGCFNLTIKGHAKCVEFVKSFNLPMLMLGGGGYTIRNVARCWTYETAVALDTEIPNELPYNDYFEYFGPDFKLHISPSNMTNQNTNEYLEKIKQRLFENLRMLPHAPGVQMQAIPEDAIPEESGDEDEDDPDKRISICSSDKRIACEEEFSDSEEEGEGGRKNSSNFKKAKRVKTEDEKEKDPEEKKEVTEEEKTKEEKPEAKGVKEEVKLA
Cytochrome P450 3A4, sequence (P08684 whole entry): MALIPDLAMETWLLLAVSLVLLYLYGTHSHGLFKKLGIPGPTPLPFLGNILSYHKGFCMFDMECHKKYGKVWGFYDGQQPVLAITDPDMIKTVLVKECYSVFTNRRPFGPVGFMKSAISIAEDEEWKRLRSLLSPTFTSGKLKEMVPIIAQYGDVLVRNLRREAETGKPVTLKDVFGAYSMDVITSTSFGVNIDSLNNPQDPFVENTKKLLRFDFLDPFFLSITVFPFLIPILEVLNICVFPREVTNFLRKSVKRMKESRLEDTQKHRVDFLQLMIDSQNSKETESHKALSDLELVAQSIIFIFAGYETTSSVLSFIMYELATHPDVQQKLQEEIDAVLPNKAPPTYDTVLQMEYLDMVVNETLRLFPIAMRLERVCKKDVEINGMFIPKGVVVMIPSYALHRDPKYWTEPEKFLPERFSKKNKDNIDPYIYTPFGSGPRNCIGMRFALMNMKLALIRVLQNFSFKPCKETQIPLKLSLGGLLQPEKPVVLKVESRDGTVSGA
T1 sequence (Q12809 whole entry): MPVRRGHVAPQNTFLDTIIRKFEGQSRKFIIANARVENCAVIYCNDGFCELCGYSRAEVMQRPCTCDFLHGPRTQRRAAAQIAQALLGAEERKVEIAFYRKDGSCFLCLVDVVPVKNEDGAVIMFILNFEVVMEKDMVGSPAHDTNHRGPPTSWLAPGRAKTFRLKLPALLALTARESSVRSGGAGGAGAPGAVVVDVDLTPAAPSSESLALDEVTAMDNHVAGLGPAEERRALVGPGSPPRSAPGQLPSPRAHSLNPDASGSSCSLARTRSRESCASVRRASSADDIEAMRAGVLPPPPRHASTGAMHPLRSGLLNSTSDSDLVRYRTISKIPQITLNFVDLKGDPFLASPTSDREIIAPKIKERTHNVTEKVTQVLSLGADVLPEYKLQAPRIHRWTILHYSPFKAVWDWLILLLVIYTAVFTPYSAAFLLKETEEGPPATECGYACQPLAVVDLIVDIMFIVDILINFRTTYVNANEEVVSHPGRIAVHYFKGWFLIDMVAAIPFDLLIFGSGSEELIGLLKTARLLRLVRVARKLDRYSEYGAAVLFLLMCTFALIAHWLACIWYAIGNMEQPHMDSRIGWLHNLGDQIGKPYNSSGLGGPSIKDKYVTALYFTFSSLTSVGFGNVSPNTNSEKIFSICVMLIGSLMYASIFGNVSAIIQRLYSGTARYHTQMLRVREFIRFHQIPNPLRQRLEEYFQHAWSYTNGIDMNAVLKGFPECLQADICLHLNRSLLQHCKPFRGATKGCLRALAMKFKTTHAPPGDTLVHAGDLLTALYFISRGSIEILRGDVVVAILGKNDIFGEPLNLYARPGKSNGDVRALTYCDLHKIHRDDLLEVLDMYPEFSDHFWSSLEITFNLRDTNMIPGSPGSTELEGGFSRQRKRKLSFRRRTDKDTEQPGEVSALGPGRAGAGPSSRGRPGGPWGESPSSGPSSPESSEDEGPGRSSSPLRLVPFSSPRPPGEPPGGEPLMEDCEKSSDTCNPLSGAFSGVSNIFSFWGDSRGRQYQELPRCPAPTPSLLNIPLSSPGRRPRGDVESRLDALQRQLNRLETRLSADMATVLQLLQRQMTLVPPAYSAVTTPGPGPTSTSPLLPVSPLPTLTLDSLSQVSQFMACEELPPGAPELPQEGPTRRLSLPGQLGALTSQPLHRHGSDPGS

SMILES | IC50 (Histone deacetylase 1) [nM] | IC50 (HCT-116) [nM] | IC50 [1] [nM] | Therm_solubility [2] | IC50 (Cytochrome P450 3A4) [nM] | solubility thermodynamic [2] [µM] | half-life [3] [min] | selectivity ratio (hERG (KCNH2); hERG assay and HCT116 cells) | IC50 [4] [nM] | half-life [5] [min] | selectivity ratio (hERG (KCNH2); hct-116)
O=C(/C=C/c1ccc2c(c1)CN(CCC1CCCCC1)C2)NO | 100 | 900 |  |  |  |  |  |  |  |  | 
O=C(/C=C/c1ccc2c(c1)CN(C(=O)C1CCCC1)C2)NO | 350 |  | > 30000 |  |  |  |  |  |  |  | 
Cc1ccccc1S(=O)(=O)N1Cc2ccc(/C=C/C(=O)NO)cc2C1 | 130 | 2230 |  | soluble |  |  |  |  |  |  | 
COc1cccc(S(=O)(=O)N2Cc3ccc(/C=C/C(=O)NO)cc3C2)c1 | 92 | 1130 | > 30000 | soluble |  |  |  |  |  |  | 
O=C(/C=C/c1ccc2c(c1)CN(C(=O)c1cccnc1)C2)NO | 380 |  | > 30000 | soluble |  |  |  |  |  |  | 
O=C(/C=C/c1ccc2c(c1)CN(S(=O)(=O)c1ccc(C(F)(F)F)cc1)C2)NO | 160 | 2430 |  | soluble |  |  |  |  |  |  | 
CCCCS(=O)(=O)N1Cc2ccc(/C=C/C(=O)NO)cc2C1 | 150 | 3210 |  | soluble |  |  |  |  |  |  | 
O=C(/C=C/c1ccc2c(c1)CN(S(=O)(=O)c1cccs1)C2)NO | 89 | 800 |  |  | > 50000 | 34 (≈ 11.9 µg/mL) |  |  |  |  | 
Cc1[nH]c2ccccc2c1CC(=O)N1Cc2ccc(/C=C/C(=O)NO)cc2C1 | 20 | 190 | > 30000 |  |  | < 20 | 15 | > 158 | > 30000 | 173 | 
O=C(/C=C/c1ccc2c(c1)CN(C(=O)C1CCCCC1)C2)NO | 390 |  |  |  |  |  |  |  |  |  | 
O=C(/C=C/c1ccc2c(c1)CN(S(=O)(=O)c1ccncc1)C2)NO | 480 |  | > 30000 | soluble |  |  |  |  |  |  | 
O=C(/C=C/c1ccc(CN(CCO)CCc2c[nH]c3ccccc23)cc1)NO [DACINOSTAT] |  |  |  |  |  | 97 (≈ 36.8 µg/mL) | 2.3 |  |  | 12 | 
O=C(/C=C/c1ccc2c(c1)CN(CCc1cnn3ccccc13)C2)NO | 78 | 530 | 5200 |  | > 50000 | 765 (≈ 267 µg/mL) | 9 |  |  | 112 | 7.4
Nc1ccccc1NC(=O)c1ccc(CNc2nccc(-c3cccnc3)n2)cc1 [MOCETINOSTAT] |  |  |  |  |  | 33 (≈ 13.1 µg/mL) | 31.3 |  |  | 37.8 | 
O=C(/C=C/c1ccc2c(c1)CN(C(=O)Cc1ccccc1)C2)NO | 130 | 830 |  | soluble | > 50000 |  |  |  |  |  | 
O=C(/C=C/c1ccc2c(c1)CN(S(=O)(=O)c1ccccc1)C2)NO | 190 | 3420 | > 30000 | soluble |  |  |  |  |  |  | 
Cn1cnc(S(=O)(=O)N2Cc3ccc(/C=C/C(=O)NO)cc3C2)c1 | 140 | 8840 | > 30000 | soluble |  |  |  |  |  |  | 
O=C(/C=C/c1ccc2c(c1)CN(S(=O)(=O)c1cccnc1)C2)NO | 150 | 4260 | > 30000 | soluble |  |  |  |  |  |  | 

SMILES | IC50 (Histone deacetylase 1) [nM] | IC50 (HCT-116) [nM] | IC50 [1] [nM] | Therm_solubility [2] | IC50 (Cytochrome P450 3A4) [nM] | solubility thermodynamic [2] [µM] | half-life [3] [min] | selectivity ratio (hERG (KCNH2); hERG assay and HCT116 cells) | IC50 [4] [nM] | half-life [5] [min] | selectivity ratio (hERG (KCNH2); hct-116)
CC(C)(C)C(=O)N1Cc2ccc(/C=C/C(=O)NO)cc2C1 | 420 |  | > 30000 |  |  |  |  |  |  |  | 
CS(=O)(=O)N1Cc2ccc(/C=C/C(=O)NO)cc2C1 | 630 |  | > 30000 | soluble |  |  |  |  |  |  | 
Nc1ccccc1NC(=O)c1ccc(CNC(=O)OCc2cccnc2)cc1 [ENTINOSTAT] |  |  |  |  | 730 | 401 (≈ 151 µg/mL) | 405 |  |  | 405 | 
O=C(CCCCCCC(=O)Nc1ccccc1)NO [VORINOSTAT] |  |  |  | 19 µM |  |  | 114 |  |  | 405 | 
Cc1ccc(S(=O)(=O)N2Cc3ccc(/C=C/C(=O)NO)cc3C2)cc1 | 47 | 1580 | > 30000 |  |  | 20 (≈ 7.17 µg/mL) | 4.1 |  |  | 11 | 
Cc1noc(-c2ccccc2)c1CCN1Cc2ccc(/C=C/C(=O)NO)cc2C1 | 170 | 2200 |  |  |  | 490 (≈ 191 µg/mL) | 6 |  |  | 17 | 
O=C(/C=C/c1ccc2c(c1)CN(S(=O)(=O)Cc1ccccc1)C2)NO | 120 | 1120 | > 30000 | soluble |  |  |  |  |  |  | 
Cc1cccc(S(=O)(=O)N2Cc3ccc(/C=C/C(=O)NO)cc3C2)c1 | 62 | 1420 | > 30000 |  |  | 20 (≈ 7.17 µg/mL) | 7 |  |  | 15 | 
Cc1[nH]c2ccccc2c1CCN1Cc2ccc(/C=C/C(=O)NO)cc2C1 | 26 | 42 | 4800 |  | > 10000 | 263 (≈ 95.1 µg/mL) | 2 |  |  | 30 | 114
O=C(/C=C/c1ccc2c(c1)CN(CCc1c[nH]c3ccccc13)C2)NO | 16 | 220 |  |  | > 10000 | 490 (≈ 170 µg/mL) | 5 |  |  |  | 
O=C(/C=C/c1ccc2c(c1)CN(S(=O)(=O)c1cccc(C(F)(F)F)c1)C2)NO | 160 | 2050 | > 30000 | soluble |  |  |  |  |  |  | 
O=C(/C=C/c1ccc2c(c1)CN(C(=O)C1CC1)C2)NO | 420 |  | > 30000 |  |  |  |  |  |  |  | 
O=C(/C=C/c1ccc2c(c1)CN(S(=O)(=O)C1CC1)C2)NO | 790 |  | > 30000 | soluble |  |  |  |  |  |  | 
O=C(/C=C/c1cccc(S(=O)(=O)Nc2ccccc2)c1)NO [BELINOSTAT] |  |  |  |  |  | 734 (≈ 234 µg/mL) | 18 |  |  | 405 | 
CC(C)(C)OC(=O)N1Cc2ccc(/C=C/C(=O)NO)cc2C1 | 520 |  | > 30000 |  |  | 99 (≈ 30.1 µg/mL) | 14 |  |  | 131 | 
O=C(/C=C/c1ccc2c(c1)CN(C(=O)c1cccc(C(F)(F)F)c1)C2)NO | 200 | 5820 |  |  |  |  |  |  |  |  | 
COc1ccc(S(=O)(=O)N2Cc3ccc(/C=C/C(=O)NO)cc3C2)cc1 | 35 | 930 | > 30000 |  | > 50000 | < 5 | 8.5 |  |  | 19 | 
O=C(/C=C/c1ccc2c(c1)CN(Cc1ccccc1)C2)NO | 200 | 1040 | 27500 |  |  |  | 29 |  |  | 50 | 
